The IC50 is the midpoint of a concentration-inhibition curve. Read a high IC50 as weaker potency in that assay.

The values that follow come from ChEMBL document CHEMBL1125021, “4-[(Carboxymethyl)oxy]- and 4-[(carboxymethyl)amino]-5,7-dichloroquinoline-2-carboxylic acid: new antagonists of the strychnine-insensitive glycine binding site on the N-methyl-D-aspartate receptor complex” (J Med Chem, 1990).

For test [1], the target named is Glutamate NMDA receptor. The test is described as follows: Binding activity against N-methyl-D-aspartate glutamate receptor in rat brain homogenate using [3H]CPP as the radioligand. Format: tissue-based.
Test [2] can be described thus: Antagonistic activity against N-methyl-D-aspartate glutamate receptor induced cGMP in rat cerebellar slices.. In kind it is functional.
Test [3] in a line: Selectivity ratio as the ratio of IC50 values for [3H]CPP/[3H]-gly.
For test [4], the target named is Glutamate NMDA receptor. In words: Binding activity against N-methyl-D-aspartate glutamate receptor in rat brain homogenate using [3H]-glycine as the radioligand. Format: tissue-based.

Each structure is given as a SMILES string.

In the case of `O=C(O)COc1cc(C(=O)O)nc2cc(Cl)cc(Cl)c12`, the IC50 at Glutamate NMDA receptor [1] is 893 µM; in test [2], 225 µM; at Glutamate NMDA receptor [4], 9 µM. Further, the Ratio in test [3] came to 99.

As for `O=C(O)c1cc(O)c2ccc(Cl)cc2n1` [7-CHLOROKYNURENIC ACID], the IC50 in test [2] stood at 8 µM. Besides, in test [3], the Ratio was 405.

As to `O=C(O)CNc1cc(C(=O)O)nc2cc(Cl)cc(Cl)c12`, the IC50 is 140 µM on Glutamate NMDA receptor [1], 3.6 µM in test [2] and 0.1 µM on Glutamate NMDA receptor [4]. Further, the Ratio in test [3] was 1400.

As to `O=C(O)c1cc(O)c2c(Cl)cc(Cl)cc2n1`, the IC50 on Glutamate NMDA receptor [1] turned out to be 37 µM; in test [2], 3.5 µM. Besides, the Ratio in test [3] was 463.
